Source: article PMC2409929 (British Journal of Cancer, 2004)
Read-outs that look alike come from different tables or passages of the source.

What was measured:
[1] = test system: patients with metastatic colorectal cancer; test: Randomised phase II trial: tumour response (WHO criteria) and time-to-event efficacy; settings: for Complete response, % / Duration of response and stabilisation, median (min–max) / Overall response (CR+PR), % / Partial response, % / Progressive disease, % / Response not evaluable, % / Stable disease, % / Survival, median (min–max) / Time to progression, median (min–max) / Time to treatment failure, median (min–max): intent-to-treat
Procedure: A total of 17 centres in Europe participated in this study: two in Denmark, one in Ireland, four in The Netherlands, five in Norway, two in Sweden and three in Russia. […] Randomisation was performed centrally by Aventis Pharma R&D, Antony Cedex, France. […] A total of 37 evaluable patients per arm had to be included.
Pretreatment evaluation included a complete medical history and complete physical examination. Before each course, blood chemistry and haematology profiles were checked. Haematology was checked weekly. […] An external response review committee (ERRC) was established during the study to perform assessments of tumour response. […] Adverse events that were not reported according to NCI-CTC were graded as mild, moderate, severe, or life threatening.
The primary efficacy variable was response rate; overall response was defined as complete plus partial response. The secondary efficacy variables were the duration of response and stabilisation, time to progression, time to treatment failure and the overall survival. The differences between the four treatment groups were explored with the χ^2 test. Subsequent statistical tests were performed only in the case of evidence of difference to provide the significance level of difference. The Fisher exact test was used to compare treatment groups on categorical variables. For continuous variables, if a normal distribution could be assumed, Student's t-tests were used. Otherwise, they were analysed by nonparametric methods. Exact confidence intervals were calculated using binominal distribution probability. Censored data were analysed using the Kaplan–Meier method; the log-rank test was used to compare the groups. Differences in pharmacokinetic parameters between the four treatment arms were evaluated using one-way analysis of variance (ANOVA) combined with least significant difference (LSD) method (P was set at 0.05) and the Student's t-test was used to calculate the P-value of significant differences. The Pearson correlation coefficient (r) was calculated between dose and pharmacokinetic parameters. Statistical analyses were performed with SPSS (version 10.0.7 for Windows, SPSS Inc.). All tests for significance were two-tailed.

[2] = Population pharmacokinetics, plasma total irinotecan and SN-38 (HPLC, NONMEM), first course; assay type: in vivo; settings: human, iv
Procedure: A pharmacokinetic evaluation was performed using a population approach; 88 patients from arms A, B and C were evaluated during the first course of treatment. The sampling strategy consisted of three different sampling schedules (with three sampling times in each): schedule 1: 30 min before the end of the infusion, 5 min and 3–4 h post-infusion; schedule 2: 30 min before the end of the infusion, 10 min and 5–7 h post-infusion; schedule 3: 5 min before the end of the infusion, 30 min and 20–24 h post-infusion. In a few cases, an additional sample was taken in schedules 1 and 2 after 24 h. All patients at one site were sampled according to the same schedule. The aim of the sampling strategy was to define the full kinetic profile over the whole population, by drawing a small number of samples at different times from a large number of patients.
Blood samples (5 ml) were collected in heparinised tubes and immediately immersed in ice-water. Plasma was obtained by centrifugation of the samples (5 min; 3000 r.p.m., 4°C) and stored at −20°C or lower until analysis. […] Pharmacokinetic parameters were determined by the Bayesian approach with the concentration–time data from each patient, and a population model previously defined.
Otherwise, they were analysed by nonparametric methods. […] All tests for significance were two-tailed.

[3] = 140 mg m^−2: 10 mg m^−2 irinotecan as 14-day prolonged infusions, N=6, mean±s.d.; ref 16 (Herben et al, 1999); cited from earlier work
[4] = test system: patients with colorectal cancer; settings: same schedule as arm A (350 mg m^−2 q3 weeks), cited from earlier work
[5] = arm A (350 mg m^−2 90-min i.v. q3 weeks)
[6] = arm B (125 mg m^−2 90-min i.v. weekly × 4 q6 weeks)
[7] = arm C (250 mg m^−2 90-min i.v. q2 weeks)
[8] = arm D (10 mg m^−2 day^−1 14-day continuous infusion q3 weeks)
[9] = arm A, 350 mg m^−2 90-min i.v. infusion, N=30, mean±s.d.
[10] = arm B, 125 mg m^−2 90-min i.v. infusion, N=28, mean±s.d.
[11] = arm C, 250 mg m^−2 90-min i.v. infusion, N=30, mean±s.d.

CCc1c2c(nc3ccc(OC(=O)N4CCC(N5CCCCC5)CC4)cc13)-c1cc3c(c(=O)n1C2)COC(=O)[C@]3(O)CC [irinotecan]
Patients who discontinued treatment because of progressive disease [1, 5]: 81% | Complete response, % [1, 5]: 0% | Duration of response and stabilisation, median (min–max) [1, 5]: 5.9 (0.8–12.7) Months | Overall response (CR+PR), % [1, 5]: 7% | Partial response, % [1, 5]: 7% | Progressive disease, % [1, 5]: 46% | Response not evaluable, % [1, 5]: 2% | Stable disease, % [1, 5]: 44% | Survival, median (min–max) [1, 5]: 9.4 (1.0–15.3) Months | Time to progression, median (min–max) [1, 5]: 2.7 (1.0–12.8) Months | Time to treatment failure, median (min–max) [1, 5]: 2.7 (1.0–12.8) Months | Patients who discontinued treatment because of progressive disease [1, 6]: 57% | Complete response, % [1, 6]: 0% | Duration of response and stabilisation, median (min–max) [1, 6]: 3.9 (1.0–13.0) Months | Overall response (CR+PR), % [1, 6]: 5% | Partial response, % [1, 6]: 5% | Progressive disease, % [1, 6]: 19% | Response not evaluable, % [1, 6]: 14% | Stable disease, % [1, 6]: 62% | Survival, median (min–max) [1, 6]: 7.1 (0.6–13.5) Months | Time to treatment failure, median (min–max) [1, 6]: 2.3 (0.6–8.3) Months | Patients who discontinued treatment because of progressive disease [1, 7]: 61% | Complete response, % [1, 7]: 0% | Duration of response and stabilisation, median (min–max) [1, 7]: 5.3 (1.3–8.9) Months | Overall response (CR+PR), % [1, 7]: 11% | Partial response, % [1, 7]: 11% | Progressive disease, % [1, 7]: 33% | Response not evaluable, % [1, 7]: 2% | Stable disease, % [1, 7]: 54% | Survival, median (min–max) [1, 7]: 8.6 (0.7–16.7) Months | Time to progression, median (min–max) [1, 7]: 3.8 (0.0–8.9) Months | Time to treatment failure, median (min–max) [1, 7]: 3.2 (0.4–7.1) Months | Patients who discontinued treatment because of progressive disease [1, 8]: 55% | Complete response, % [1, 8]: 2% | Duration of response and stabilisation, median (min–max) [1, 8]: 3.4 (1.3–6.9) Months | Overall response (CR+PR), % [1, 8]: 5% | Partial response, % [1, 8]: 2% | Progressive disease, % [1, 8]: 34% | Response not evaluable, % [1, 8]: 18% | Stable disease, % [1, 8]: 43% | Survival, median (min–max) [1, 8]: 6.4 (1.1–15.1) Months | Time to progression, median (min–max) [1, 8]: 2.8 (0.0–7.0) Months | Time to treatment failure, median (min–max) [1, 8]: 1.7 (0.5–7.1) Months | Median survival ([1]; range across the four arms A–D): 6.4–9.4 months | Overall response rates ([1]; range across the four arms A–D): 5–11% | Time to progression ([1]; range across the four arms A–D): 2.7–3.8 months | Time to treatment failure ([1]; range across the four arms A–D): 1.7–3.2 months | AUC [2, 9]: 47.8 ± 19 µM·h | Cmax [2, 9]: 7.91 ± 1.1 µM | AUC [2, 10]: 14.6 ± 6.9 µM·h | Cmax [2, 10]: 2.62 ± 0.39 µM | AUC [2, 11]: 32.7 ± 13.5 µM·h | Cmax [2, 11]: 5.52 ± 0.9 µM | Irinotecan AUC [3]: 12.8 ± 3.9 µM·h | Median survival ([4]; ref Cunningham et al (1998)): 9.2 months | Median survival ([4]; ref Rougier et al (1997)): 10.8 months
